Source: patent US7094752B2 (Chiron Corporation, priority 1997, dated 2006)
Entries after “also recorded” stand apart in the source; their conditions may differ. Where two headings read alike, the source gives them in different places. Ends that are not written are not given here.

Tests used:
[1] = molecular target: T1, uPA1–48:uPAR complexes binding to vitronectin (Homo sapiens, UniProt Q03405); assay: Vitronectin binding assay (ELISA); settings: 20 nM biotinylated suPAR, 20 nM uPA1–48
T1 construct: sUPAR, soluble truncated form of the urokinase receptor; made in house; host or cells: suPAR: baculovirus-infected Sf9 cells; uPA1-48: recombinant yeast; vitronectin: purified from human plasma
Description: Vitronectin was purified from human plasma by the method of Yatohgo et al, Cello Struct.and Funct. 13: 281–292 (1988). Purified vitronectin was diluted to 20 μg/ml in PBS containing 1 mM CaCl2 and 0.5 mM MgCl2, dispensed at 50 μl/well into Immulon II wells (Dynatech, Chantilly, Va.), incubated overnight at 4° C. and washed with PBS/BSA. Biotinylated sUPAR was diluted to 20 nM in PBS/BSA, incubated with or without test ligand for 30 minutes at room temperature (22° C.), dispensed at 100 μl/well and incubated for 90 minutes. Wells were then washed and horseradish peroxidase (HRP)-conjugated streptavidin was added at 0.4 μg/ml in PBS/2% BSA for 1 hour followed by washing and addition of 100 μl/well TMB substrate. The color development was stopped with 100 μl of 0.8N H2SO4 and the absorbance at 450 nm measured in a 96 well plate reader (Dynatech, Chantilly, Va.). Antagonistic effects of test ligands were measured as described above except the ligands were incubated with 20 nM biotinylated suPAR in the presence of 20 nM uPA1–48.
In order to analyze the effects of the various peptide ligands on the uPAR:vitronectin interaction, we developed an in vitro ELISA based assay for this interaction, in which biotinylated suPAR and uPA1–48 bind to immobilized, urea purified vitronectin, and the bound sUPAR is detected with HRP conjugated streptavidin. Under the conditions of the assay binding of biotinylated uPAR to vitronectin is strictly dependent on uPA1–48, as shown in FIG. 1.

sUPAR domain 2–3 (D23) = molecular target: T2, sUPAR domain 2–3 (D23) (Homo sapiens, UniProt Q03405); assay: Bacteriophage binding to sUPAR domain 2/3; settings: phage-displayed peptide
T2 construct: domains 2 and 3 (amino acids 93–313); made in house; host or cells: baculovirus infected Sf9 insect cells
Description: FIG. 5. Bacteriophage binding to sUPAR domain 2/3. Phage were added to wells containing sUPAR domain 2/3 immobilized by its epitope tag via protein G and monoclonal antibody to the epitope tag. Wells containing protein G and antibody but no domain 2/3 were included to determine nonspecific phage binding. Urea-eluted phage and the input stocks were titered by plaque formation assay. Results were single point determinations calculated as a percent of the input titer and were repeated in three separate experiments.
It was also shown by the inventors that bacteriophage bound to sUPAR domain 2–3fragment. Protein G, 100μl, 1 mg/ml in 50 mM Na2CO3, pH9.6, was added to MaxiSorp wells, incubated overnight at 4° C. and then washed with PBS/BSA. Fifty μl of monoclonal antibody to the epitope tag EYMPME (SEQ ID NO: 18) was added at 1 mg/ml in PBS/BSA and incubated for 2 hours at room temperature. The wells were washed, recombinant sUPAR domain 2–3 (1.7 μM in PBS/BSA) was added and incubated for 1.5 hours at room temperature. The wells were washed prior to the addition of bacteriophage (approximately 10^8 pfu), and then treated as described in the previous section for binding to suPAR.

suPAR [2] = molecular target: T3, suPAR (Homo sapiens, UniProt Q03405); assay: suPAR binding assay (competition for uPA1–48 binding); settings: synthetic peptide
T3 construct: sUPAR, soluble truncated form of the urokinase receptor; made in house; host or cells: baculovirus-infected Sf9 insect cells
Description: Twenty-eight independent bacteriophage were isolated and the random peptide encoding DNA segments sequenced. […] This is in contrast to previous results of affinity selection on uPAR alone, where the majority of selected bacteriophage bound with substantial yield as described in Goodson et al, Proc.Natl.Acad.Sci. USA 91: 7129–7133 (1994). The yields of these four bacteriophage were determined on suPAR in the presence and absence of uPA1–48. In addition, the encoded peptides were synthesized and tested as competitors in a suPAR binding assay as described in Stratton-Thomas et al, Prot.Eng. 8: 463–470 (1995), and Kaufman et al Anal.Biochem. 211: 261–266 (1993).

uPAR = molecular target: T4, uPAR (Homo sapiens, UniProt Q03405); assay: IC 50 (uM)^2
T4 construct: sUPAR, soluble truncated form of the urokinase receptor; made in house; host or cells: baculovirus-infected Sf9 insect cells
Description: Table printed on a drawing sheet, FIG. 6
Head of the field: IC 50 (uM)^2
The patent's description of the figure: FIG 6: Table. The table of FIG 6 depicts the sequences (SEQ ID NOS:12–17), phage yields, and IC50s in uPAR binding assays for selected phage peptides. Legend: 1. Individual phage were incubated with biotinylated suPAR with and without 10 μM uPA1–48 on streptavidin coated wells as described herein. The background yields of all phage without SuPAR in the wells ranged from 0.002–0.025%. Errors in yield are in the range 50%. 2. Apparent inhibition constant of the synthetic peptide in the uPAR receptor binding assay; errors are in the range of 20%. 3. NT=not determined because of peptide insolubility. 4. Clone 20 and 13–32 peptides were as described previously.
First copying reader's note: The head is printed shifted: 'Phage Yield' covers the -1-48 and +1-48 columns and 'IC 50 (uM)' belongs to the last column; the raised marks 1-4 refer to a legend that is not printed on the sheet.
Where the first naming reader finds the target: description_of_the_figure: IC50s in uPAR binding assays for selected phage peptides

nontransfected 293 cells = assay: Adhesion of nontransfected 293 cells to fibronectin or collagen; assay type: cell-based; settings: recombinant soluble uPAR added, dose dependent
From the text: To explore whether uPAR binds to integrins, nontransfected 293 cells were allowed to adhere to fibronectin or collagen in the presence of recombinant soluble uPAR (suPAR).

[3] = test system: uPAR mediated adhesion of stimulated U937 cells; assay: Adhesion of stimulated U937 cells to vitronectin; assay type: cell-based
From the text: Previous results had shown that vitronectin binding by uPAR correlated with cell adhesion of stimulated U937 cells as described in Wei et al, J. Biol. Chem. 269: 32380–32388 (1994). It was found also that clone 7 peptide could block uPAR mediated adhesion of these cells, whereas the scrambled version of the same peptide had no effect.

suPAR [4] = molecular target: T3, suPAR; assay: SuPAR:1-anilino-8-napthalenesulfonate (ANS) fluorescence; assay type: binding; settings: 2 μM sUPAR, 10 μM ANS, 0 to 20 μM competitor
Description: Determination of the effect of various peptide ligands on sUPAR/ANS fluorescence was performed following a procedure similar to that of Ploug et al, Biochem. 33: 8991–8997 (1994). Fluorescence emission spectra of sUPAR/ANS solutions with or without competitors were obtained using an Hitachi F-4500 fluorescence spectrophotometer with an excitation wavelength of 386 nm, 5-nm band-pass excitation and emission slits, and a 10 mm path length quartz cuvette. The emission spectra from 400 to 600 nm were recorded. For competition measurements, dilutions of a stock sUPAR/ANS solution were made to give individual 0.5 ml aliquots with a final concentration of 2 μM sUPAR, 10 μM ANS, and 0 to 20 μM competitor in PBS containing 10% DMSO. Fluorescence measurements were made after a one hour incubation at 25° C.

uPA1–48:suPAR complex = molecular target: T5, uPA1–48:suPAR complex (Homo sapiens, UniProt Q03405); assay: Bacteriophage 7 and 18 binding to uPA1–48:suPAR complex in presence of vitronectin; settings: clone 7 and 18 bacteriophage
T5 construct: sUPAR, soluble truncated form of the urokinase receptor; made in house; host or cells: suPAR: baculovirus-infected Sf9 cells; uPA1-48: recombinant yeast
Description: The ability of the various bacteriophage derived peptides to affect binding of uPA1–48:uPAR complexes to vitronectin was assessed in the ELISA assay. Two classes of peptides were effective antagonists in this assay. […] None of the peptides when tested alone increased the binding of biotinylated suPAR to vitronectin. […] In order to test whether the clone 7 and 18 peptides bound directly at the vitronectin binding site on uPAR, and inhibited vitronectin binding by uPAR:uPA1–48 by direct competition for that site, the inventors examined the effects of vitronectin on the binding of these bacteriophage. Vitronectin reduced bacteriophage binding to the uPA1–48:suPAR complex by 5–10 fold, consistent with the hypothesis that these peptides mimic vitronectin as a uPAR ligand.

T1 sequence (Q03405 23-305 limits assumed, one chain of several): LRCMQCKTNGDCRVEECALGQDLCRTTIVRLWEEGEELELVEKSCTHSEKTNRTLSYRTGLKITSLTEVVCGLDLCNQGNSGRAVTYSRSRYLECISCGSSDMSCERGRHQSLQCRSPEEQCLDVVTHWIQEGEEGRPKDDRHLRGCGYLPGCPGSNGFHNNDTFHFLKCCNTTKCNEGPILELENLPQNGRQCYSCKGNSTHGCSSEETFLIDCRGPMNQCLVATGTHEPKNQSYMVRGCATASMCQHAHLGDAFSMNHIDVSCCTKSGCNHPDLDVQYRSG
T3 sequence (Q03405 23-305 limits assumed): as the sequence (Q03405 23-305 limits assumed, one chain of several) above
T4 sequence (Q03405 whole entry, looked up, the tested form may be a part): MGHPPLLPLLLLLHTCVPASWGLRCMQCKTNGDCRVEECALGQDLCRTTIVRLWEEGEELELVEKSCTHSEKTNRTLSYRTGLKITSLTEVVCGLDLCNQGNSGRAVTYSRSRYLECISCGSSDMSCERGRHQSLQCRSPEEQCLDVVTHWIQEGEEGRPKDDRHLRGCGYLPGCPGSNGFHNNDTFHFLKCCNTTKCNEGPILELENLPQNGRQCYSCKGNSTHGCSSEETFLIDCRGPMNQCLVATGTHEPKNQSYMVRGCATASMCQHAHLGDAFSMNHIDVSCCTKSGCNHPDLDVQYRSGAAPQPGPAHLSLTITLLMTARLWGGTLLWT
T2 sequence (Q03405 115-335): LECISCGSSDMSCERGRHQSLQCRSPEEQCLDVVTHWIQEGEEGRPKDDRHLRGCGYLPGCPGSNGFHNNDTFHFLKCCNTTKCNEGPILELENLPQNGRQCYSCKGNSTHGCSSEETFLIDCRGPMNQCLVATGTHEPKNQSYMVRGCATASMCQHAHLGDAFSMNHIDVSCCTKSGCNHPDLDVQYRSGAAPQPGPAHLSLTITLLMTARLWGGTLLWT
T5 sequence (Q03405 23-305, other chains not shown): as the sequence (Q03405 23-305 limits assumed, one chain of several) above

Substance | effect on binding of uPA1–48:uPAR complexes to vitronectin [1] | bacteriophage binding to immobilized D23 versus sUPAR (sUPAR domain 2–3 (D23)) | competition for uPA1–48 binding to sUPAR / receptor binding activity (in words) (suPAR [2]) | IC50 (uPAR) | other results
uPA13–32: amino acids 13–32 of human urokinase with Cys19 converted to Ala (CLNGGTAVSNKYFSNIHWCN) [reference compound] | reduce binding | bind signficantly only to intact sUPAR | compete directly for uPA1–48 binding | – | –
H-AESTYHHLSLGYMYTLN-NH2 [compound 25] | – | – | – | > 10 µM | –
AELDLSTFYDIQYLLRT-NH2 [peptide 18] | blocks binding of complexes to vitronectin | intermediate degree of binding to D23 | greatly reduced competition for uPA1–48 binding | 10 µM | effect on binding of uPA1–48:uPAR complexes to vitronectin ([1]; listed as clone 18): inhibit complex binding
CLNGGTAVSNKYFSNLHWC [13-32^4] | – | – | – | 0.25 µM | –
suPAR: soluble recombinant human urokinase receptor from baculovirus-infected Sf9 insect cells | – | – | – | – | adhesion of nontransfected 293 cells to fibronectin and collagen (nontransfected 293 cells): inhibited adhesion
AE PMPHSLNFSQYAWYT [analog of clone 20 peptide, reference compound] | did not affect binding to vitronectin | – | greatly reduced receptor binding activity | – | –
VEYRDAYSYPQYLSYLE [scrambled version of clone 7, same amino acids as clone 7, but in a different order, reference compound] | did not; also recorded: does not | – | – | – | block of uPAR mediated adhesion of stimulated U937 cells to vitronectin [3]: no effect
AEPVYQYELDSYLRSYY-NH2 [peptide 7] | inhibits complex binding to vitronectin | intermediate degree of binding to D23 | greatly reduced competition for uPA1–48 binding | 10 µM | effect on binding of uPA1–48:uPAR complexes to vitronectin ([1]; listed as clone 7): inhibit complex binding; reduced binding to D23 versus suPAR (sUPAR domain 2–3 (D23)): about 50 fold; block of uPAR mediated adhesion of stimulated U937 cells to vitronectin ([3]; listed as clone 7): effective blocker; block of uPAR mediated adhesion of stimulated U937 cells to vitronectin ([3]; listed as clone 7 peptide): could block; effect on ANS fluorescence enhancement in the presence of uPAR (suPAR [4]): reduced fluorescence in a dose dependent manner
vitronectin: vitronectin purified from human plasma | blocked | – | – | – | reduction of bacteriophage binding to the uPA1–48:suPAR complex (uPA1–48:suPAR complex): 5–10 fold
H-AEPMPHSLNFSQYLWYT-NH2 [20^4] | – | – | – | 0.01 µM | –
